{"source": "patent US20220347171A1", "about": "“TREATMENT OF PRURIGO NODULARIS” (TREVI THERAPEUTICS, INC., priority 2016, published 2022)", "key": {"[1]": {"system": "prurigo nodularis patients", "assay": "Example 2 trial: average itch intensity NRS score", "assay_type": "in vivo, human", "settings": "180 mg BID; end of treatment; 95% CI −2.764, −0.134; P=0.031", "procedure": "This clinical study was a double-blind, placebo-controlled trial in which prurigo nodularis patients were randomized in a 1:1:1 ratio to nalbuphine ER tablets to a target dose of 90 mg twice daily (BID), nalbuphine HCl ER tablets 180 mg BID, or placebo tablets BID. Use of nonsedating rescue antihistamine medications (non-first generation H1-antihistamines [Simons F E. Advances in H1-antihistamines. N Engl J Med. 2004; 351(21):2203-17.]) were allowed in the study but their use was recorded. Cleansing emollients were allowed for hygiene purposes provided there were no active substances (such as menthol or urea) contained in the lotion. A placebo comparator was chosen because there are no approved treatments for prurigo nodularis in the United States or Europe or an established standard of care that could serve as an active control.\n(1) The proportion of patients with at least a 30% reduction in the 7-day average daily diary-reported NRS itch intensity from baseline to the evaluation visit (Week 10). (2) The proportion of patients with at least a 50% reduction in the 7-day average daily diary-reported NRS itch intensity from baseline to the evaluation visit (Week 10). […] (5) Prurigo nodularis skin lesions, as quantitatively measured by the Prurigo Activity Score (PAS) recorded at baseline and during evaluation visit (Week 10). […]"}, "[2]": {"system": "prurigo nodularis patients", "assay": "Phase 2 open label extension study (TR03ext, Example 3), titrated 30 mg QD to 180 mg BID, up to 50 weeks: Worst itch NRS", "assay_type": "in vivo, human", "settings": "for Worst Itch NRS Visit Mean (SD): Baseline 7.6 (1.6)", "description": "This clinical study was a Phase 2 Open Label Extension Study (clinical study TR03ext) of the randomized, double-blind, 3-parallel arm, placebo controlled dose ranging study described in Example 2. All those subjects who were randomized, and then completed Example 2 study, were eligible to participate in the Extension Study.\nThe primary endpoint was a description of the overall incidence and nature of Treatment-Emergent AEs (TEAES) during weeks 5-50 of the study. Exploratory efficacy endpoints included Change from Baseline patient reported outcome measures of Worst itch NRS, itchy VRS and ItchyQoL, by Treatment Period study visit and Baseline NRS score. There was also an assessment of any potential skin lesion changes over time using the metrics of the PAS.\nOf the 63 patients that were randomized to the study of Example 2, 36 subjects who enrolled into Extension Study entered the Treatment Period of the study and were exposed to nalbuphine HCl ER tablet administration and are the basis of the study safety population analysis.\nPatients in Extension Study were titrated over a dose range of 30 mg QD to 180 mg BID based on tolerability. The selected dose range was based on Example 2 study whereby patients were titrated from a 30 mg QD dose either to 30 mg BID, 60 mg BID, 90 mg BID, 120 mg BID or a 180 mg BID dose. The highest dose proposed was 180 mg BID (360 mg daily dose), and was well below the highest recommended daily treatment of 160 mg IV (equivalent to 960 mg oral) for the current marketed parenteral administered product.\nThe study duration for each patient was up to 52 weeks, with up to 50 weeks on study drug. The Extension Study consisted of a Treatment Period (that was followed by a Washout Safety Follow-up Period) and an Observation Period. Patients either entered directly into a drug Treatment Period (NRS >5) or a no-drug Observation Period (NRS ≤5) based on their reported NRS scores on the first Visit (Visit 1a). For up to 12 Extended Screening weeks, patients in the no-drug Observation Period could have also transitioned into the drug Treatment Period if their NRS increased to NRS >5. All patients entering the Treatment Period, whether immediately upon study entry or following a period of time in the Observation Period, were titrated to a dose ranging between 30 mg up to 180 mg BID, the highest dose tested in Example 2."}}, "note": "Structures can show the parent of a compound that is named as a salt.", "data": [{"smiles": "Oc1ccc2c3c1OC1[C@@H](O)CC[C@@]4(O)[C@@H](C2)N(CC2CCC2)CC[C@]314", "note": "(stereo partly drawn) [Nalbuphine, 17-(cyclobutylmethyl)-4,5α-epoxymorphinian-3, 6α, 14-triol, hydrochloride]", "values": [{"measurement": "LS mean treatment difference in change from baseline average itch intensity NRS score versus placebo", "setting": "[1]", "result": "−1.45"}, {"measurement": "Worst Itch NRS Mean (SD) Change from Baseline", "setting": "[2]; Study Week 3, N=34", "result": "−2.0 (2.2)"}, {"measurement": "Worst Itch NRS Visit Mean (SD)", "setting": "[2]; Study Week 3, N=34", "result": "5.7 (2.4)"}, {"measurement": "Worst Itch NRS Mean (SD) Change from Baseline", "setting": "[2]; Study Week 5, N=33", "result": "−2.5 (2.2)"}, {"measurement": "Worst Itch NRS Visit Mean (SD)", "setting": "[2]; Study Week 5, N=33", "result": "5.2 (2.5)"}, {"measurement": "Worst Itch NRS Mean (SD) Change from Baseline", "setting": "[2]; Study Week 9, N=30", "result": "−2.9 (2.2)"}, {"measurement": "Worst Itch NRS Visit Mean (SD)", "setting": "[2]; Study Week 9, N=30", "result": "4.6 (2.3)"}, {"measurement": "Worst Itch NRS Mean (SD) Change from Baseline", "setting": "[2]; Study Week 13, N=25", "result": "−2.7 (1.8)"}, {"measurement": "Worst Itch NRS Visit Mean (SD)", "setting": "[2]; Study Week 13, N=25", "result": "4.8 (2.2)"}, {"measurement": "Worst Itch NRS Mean (SD) Change from Baseline", "setting": "[2]; Study Week 17, N=25", "result": "−3.6 (2.6)"}, {"measurement": "Worst Itch NRS Visit Mean (SD)", "setting": "[2]; Study Week 17, N=25", "result": "3.8 (2.4)"}, {"measurement": "Worst Itch NRS Mean (SD) Change from Baseline", "setting": "[2]; Study Week 21, N=22", "result": "−3.3 (2.4)"}, {"measurement": "Worst Itch NRS Visit Mean (SD)", "setting": "[2]; Study Week 21, N=22", "result": "4.1 (2.4)"}, {"measurement": "Worst Itch NRS Mean (SD) Change from Baseline", "setting": "[2]; Study Week 26, N=21", "result": "−3.9 (2.2)"}, {"measurement": "Worst Itch NRS Visit Mean (SD)", "setting": "[2]; Study Week 26, N=21", "result": "3.4 (1.6)"}, {"measurement": "Worst Itch NRS Mean (SD) Change from Baseline", "setting": "[2]; Study Week 30, N=20", "result": "−4.2 (2.3)"}, {"measurement": "Worst Itch NRS Visit Mean (SD)", "setting": "[2]; Study Week 30, N=20", "result": "3.2 (1.6)"}, {"measurement": "Worst Itch NRS Mean (SD) Change from Baseline", "setting": "[2]; Study Week 34, N=18", "result": "−3.9 (2.1)"}, {"measurement": "Worst Itch NRS Visit Mean (SD)", "setting": "[2]; Study Week 34, N=18", "result": "3.3 (1.6)"}, {"measurement": "Worst Itch NRS Mean (SD) Change from Baseline", "setting": "[2]; Study Week 38, N=17", "result": "−3.9 (1.7)"}, {"measurement": "Worst Itch NRS Visit Mean (SD)", "setting": "[2]; Study Week 38, N=17", "result": "3.2 (1.6)"}, {"measurement": "Worst Itch NRS Mean (SD) Change from Baseline", "setting": "[2]; Study Week 42, N=17", "result": "−3.9 (1.4)"}, {"measurement": "Worst Itch NRS Visit Mean (SD)", "setting": "[2]; Study Week 42, N=17", "result": "3.2 (1.4)"}, {"measurement": "Worst Itch NRS Mean (SD) Change from Baseline", "setting": "[2]; Study Week 46, N=17", "result": "−3.9 (1.3)"}, {"measurement": "Worst Itch NRS Visit Mean (SD)", "setting": "[2]; Study Week 46, N=17", "result": "3.2 (1.5)"}, {"measurement": "Worst Itch NRS Mean (SD) Change from Baseline", "setting": "[2]; Study Week 50, N=15", "result": "−4.3 (1.3)"}, {"measurement": "Worst Itch NRS Visit Mean (SD)", "setting": "[2]; Study Week 50, N=15", "result": "2.9 (1.7)"}]}]}
